From US7183267B2, “β-lactamase inhibitors and methods of use thereof” (priority 2003, dated 2007)
pKi: −log10 of the molar value.

How the values were obtained:
TEM-1 β-lactamase = TEM-1 β-lactamase (Escherichia coli, UniProt P62593); test: TEM-1 β-lactamase inhibition assay (nitrocefin hydrolysis, 486 nm); type: biochemical; conditions: Ki, 25° C., 50 mM sodium phosphate, 5% DMSO, pH 7.0; enzyme 5 nM, nitrocefin 167 μM
Procedure, shortened: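 TEM-1 activity followed by nitrocefin hydrolysis at 486 nm, 25 °C, 50 mM sodium phosphate pH 7.0, 5% DMSO; inhibitor preincubated with enzyme 10 min before substrate. Ki obtained from rates at increasing inhibitor concentrations fitted to competitive-inhibition equations; penicillin G also used as substrate for KM and kcat.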

β-lactamase wt = β-lactamase wt (Escherichia coli, UniProt P62593); test: Isothermal titration calorimetry, binding enthalpy, wild type
Description: (§1) The binding of the compounds of the present invention to β-lactamase was also measured by isothermal titration calorimetry.
(§2) These experiments, in combination with the inhibition assays, indicate that the compounds identified in this disclosure bind to the wild type as well as drug resistant beta lactamases with favorable binding enthalpies. This is a very important characteristic from the point of view of further optimization since it facilitates the achievement of extremely high affinities and low susceptibilities to drug resistant mutations and naturally occurring polymorphisms.
(§3) Isothermal titration calorimetry was performed on a high-precision VP-ITC titration calorimeter (Microcal Inc., Northampton, Mass.). β-Lactamase solutions were titrated with inhibitors in 50 mM sodium phosphate, 2% DMSO, pH 7.0, with β-lactamase concentrations ranging from 15 to 25 μM and inhibitor concentrations ranging from 300 to 1000 μM. The heat evolved from each injection was obtained by integrating the calorimetric signal. Heat of binding was obtained as the difference between the heat of reaction and the heat of inhibitor dilution. Data were analyzed using Origin 7.0 (OriginLab Corporation, Northampton, Mass.).

β-lactamase M69I = β-lactamase M69I (Escherichia coli, UniProt P62593, M67I); test: Isothermal titration calorimetry, binding enthalpy, M69I mutant
Description: as §1, §2, §3

β-lactamase E104K = β-lactamase E104K (Escherichia coli, UniProt P62593, E102K); test: Isothermal titration calorimetry, binding enthalpy, E104K mutant
Description: as §1, §2, §3

β-lactamase R244S = β-lactamase R244S (Escherichia coli, UniProt P62593, R241S); test: Isothermal titration calorimetry, binding enthalpy, R244S mutant
Description: as §1, §2, §3

β-lactamase mutant E104K = β-lactamase mutant E104K (Escherichia coli, UniProt P62593, E102K); type: biochemical; conditions: number higher than 1 reflects a loss of potency against mutant
β-lactamase mutant M69I = β-lactamase mutant M69I (Escherichia coli, UniProt P62593, M67I); type: biochemical; conditions: number higher than 1 reflects a loss of potency against mutant
β-lactamase mutant R244S = β-lactamase mutant R244S (Escherichia coli, UniProt P62593, R241S); type: biochemical; conditions: number higher than 1 reflects a loss of potency against mutant
AmpC β-lactamase [1] = biological target: T1, AmpC β-lactamase (Escherichia coli, UniProt P00811); test: AmpC β-lactamase competitive inhibition assay (nitrocefin hydrolysis); type: biochemical
T1 construct: made in house; host or cells: E. coli BL21 (DE3)
T1 sequence (P00811 20-377): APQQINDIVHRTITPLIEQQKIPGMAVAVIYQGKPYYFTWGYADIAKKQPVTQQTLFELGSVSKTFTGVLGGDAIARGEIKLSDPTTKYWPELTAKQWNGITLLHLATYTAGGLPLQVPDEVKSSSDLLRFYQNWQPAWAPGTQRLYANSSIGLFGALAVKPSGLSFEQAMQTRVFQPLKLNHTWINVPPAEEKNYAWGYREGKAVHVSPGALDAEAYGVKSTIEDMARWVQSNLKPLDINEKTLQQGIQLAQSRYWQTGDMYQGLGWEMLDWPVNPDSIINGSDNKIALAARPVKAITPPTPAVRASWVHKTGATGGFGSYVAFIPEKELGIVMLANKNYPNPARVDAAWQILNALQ
Description: The gene for AmpC β-lactamase (accession number P00811) was obtained from Escherichia coli K12 strain W3110 (American Type Culture Collection, Rockville Md.). E. coli was grown and plasmid (F-lacIq lacPL8 ampC::lambdacI+) was isolated via Qiagen (Valencia, Calif.) mini prep. The gene for AmpC was amplified in two pieces via polymerase chain reaction, ligated and purified by agarose gel electrophoresis. The ligated gene was inserted into a pET200 vector via a TOPO reaction (Invitrogen, Carlsbad, Calif.).
BL21 (DE3) (Invitrogen) cells were transformed by heat-shock with the prepared plasmid. These cells were grown to an OD600 of 0.8 at 37° C. Isopropylthiogalactoside (IPTG) was added to 1 mM, incubation temperature decreased to 25° C. and the cells were grown for an additional 18 hours. After 18 hours, the E. coli was pelleted by centrifugation, and discarded. The growth media was concentrated and dialyzed versus 100 mM Tris, pH 7.0. This solution was run through an equilibrated Q-resin column, and washed with excess 100 mM Tris, pH 7.0.
The competitive inhibition of β-lactamase was determined spectrophotometrically using a Varian (Walnut Creek, Calif.) Cary 100 UV-Visible spectrophotometer. β-lactamase activity was followed by measuring the hydrolysis of nitrocefin, [3-(2,4-dinitrostyryl)-(6R, 7R)-7-(2-thienylacetamido)-ceph-3-em-4-carboxylic acid, E-isomer], (Calbiochem, San Diego, Calif.) at 486 nm. Inhibition assays were performed at 25° C. in 50 mM sodium phosphate, 5% DMSO, pH 7.0. […] Penicillin G (Sigma, St. Louis, Mo.) was also used as a substrate to determine KM and kcat.
Inhibitor was added to protein and incubated for ten minutes before the addition of substrate. Inhibition constants were determined by measuring the loss of P-lactamase activity with increasing inhibitor concentrations and fitting the data to standard equations for competitive inhibition.

AmpC β-lactamase [2] = biological target: T1, AmpC β-lactamase; conditions: binding to AmpC; ITC
Description: as §3
Isothermal titration calorimetry was undertaken to determine the thermodynamic characteristics of binding to AmpC β-lactamase.

Q: What does the source list for O=C(OCc1ccccc1)c1cc(B(O)O)cc([N+](=O)[O-])c1 [Compound F1201]?
A: pKi (TEM-1 β-lactamase): 4.57; ΔH wt (β-lactamase wt): -3.2 kcal/mol; ΔH M69I (β-lactamase M69I): -2.4 kcal/mol; ΔH E104K (β-lactamase E104K): -3.5 kcal/mol; ΔH R244S (β-lactamase R244S): -6.5 kcal/mol; Loss of potency: ratio of the inhibitory constant between mutant and wild type (Potencywt/Potencymutant), E104K (β-lactamase mutant E104K): 0.48; Loss of potency: ratio of the inhibitory constant between mutant and wild type (Potencywt/Potencymutant), M69I (β-lactamase mutant M69I): 0.52; Loss of potency: ratio of the inhibitory constant between mutant and wild type (Potencywt/Potencymutant), R244S (β-lactamase mutant R244S): 0.86; pKi (AmpC β-lactamase [1]): 5.35; ΔG (AmpC β-lactamase [2]): -6.566 kcal/mol; ΔH (AmpC β-lactamase [2]): -5.084 kcal/mol; −TΔS (AmpC β-lactamase [2]): -1.482 kcal/mol
